Read-outs that look alike come from different tables or passages of the source.
Experiments:
[1] = Thiol (NAC) reactivity study by HPLC; type: physicochemical; conditions: 37° C. in PBS, HPLC, 0.3 mM analog, 1.5 mM NAC
Experimental: HPLC was performed on Shimadzu LC-20AT HPLC system. Condition: mobile phase A: water with 0.05% TFA; B: acetonitrile with 0.05% TFA; gradient: 5-95% B, 0-10 min; […]; 5% B 12.1-15 min. Column: C18, 3.5 μm, 4.6×150 mm; UV detector monitored at 254 nm. For the thiol reactivity assay, a 0.3 mM solution of AQ-analogs was prepared in 0.5 mL PBS: MeOH (80:20) and warmed at 37° C. Next, 25 μL of NAC (from 30 mM stock solution in PBS) was added to the above solution. The resultant solution had final concentrations of 0.3 mM AQ-analogs and 1.5 mM NAC. 20 μL of the reaction mixture was injected into the HPLC at the designated time intervals. The area percentage values were determined via the integration of the area under the curve (AUC) of the chromatogram.

EU-1 cells = experiment: Cytotoxicity test (CCK-8 cell viability) in EU-1 cells; type: cell-based; conditions: for IC50: read-out: IC50 (μM) in EU-1 cells
Experimental: Cell viability was assessed by using Cell Counting Kit-8 (CCK-8, Dojindo, Japan). EU-1 and RS4;11 cells were cultured in RPMI-1640 medium (Corning, USA); MCF7 and HEK-293 cells were cultured in MEM (Corning, USA); and HeLa and H9c2 cells were cultured in high glucose DMEM (Corning, USA). All the culture mediums were supplemented with 10% fetal bovine serum (Corning, USA) and 100 unit/ml penicillin, and […] streptomycin. For cytotoxicity assays, cells were seeded into 96-well plates at a density of 3× 10^5 cells per well (50 μL). Compounds were dissolved in DMSO (molecular biology grade, Sigma-Aldrich, USA) to make 10 mM stock solutions, which were serially diluted with the culture medium to various concentrations (final DMSO concentration=0.5%). A culture medium (50 μL) containing the anthraquinone analog was added directly to the cell suspension in each well immediately after seeding. After incubation for 24 h at 37° C. in a humidified atmosphere with 5% CO2, 10 μL of CCK-8 solution was added to each well, and the plate was incubated for an additional 2-4 h at 37° C. before measuring the optical density at 450 nm with a microplate reader (PerkinElmer Victor 2, USA). The cell viability of each well was calculated as the percentage of the untreated control according to the manufacturer's manual. All tests were performed in triplicates, and IC50 values were determined with six concentrations by non-linear regression using GraphPad Prism 9.

[2] = system: RS4;11 cells (wild-type p53); experiment: Cytotoxicity test of BW-AQ-365 (CCK-8) in RS4;11 cells; type: cell-based; conditions: Homo sapiens; RS4; 11, 25000 cells/well, 48 h, positive control
Experimental: Cell viability was assessed by using Cell Counting Kit-8 (CCK-8, Dojindo, Japan). RS4;11 cells (wild-type p53) were cultured in RPMI-1640 medium (Corning, USA). The culture mediums were supplemented with 10% fetal bovine serum (Corning, USA) and 100 unit/ml penicillin, and […] streptomycin. […] Compounds were dissolved in DMSO (molecular biology grade, Sigma-Aldrich, USA) to make 10 mM stock solutions, which were serially diluted with the culture medium to various concentrations (final DMSO concentration=0.5%). A culture medium (50 μL) containing BW-AQ-365 was added directly to the cell suspension in each well immediately after seeding. After incubation for 24-72 h at 37° C. in a humidified atmosphere with 5% CO2, 10 μL of CCK-8 solution was added to each well, and the plate was incubated for an additional 2-4 h at 37° C. before measuring the optical density at 450 nm with a microplate reader (PerkinElmer Victor 2, USA). The cell viability of each well was calculated as the percentage of the untreated control according to the manufacturer's manual. All tests were performed in triplicates, and IC50 values were determined by non-linear regression using GraphPad Prism 9.0.

[3] = EU-1 cells, 24 h incubation, CCK-8

Compound | order of reactivity with NAC (pseudo-first-order kinetics) [1] | IC50 (EU-1 cells; [3]) | fold decrease in potency / less potent compared to BW-AQ-295 (EU-1 cells; EU-1 cells) | also measured
C=CS(=O)(=O)Nc1cc(OCCCC(C)=O)c2c(c1)C(=O)c1cccc(OCCCC(C)=O)c1C2=O [BW-AQ-354, N-(9,10-dioxo-4,5-bis ((4-oxopentyl)oxy)-9,10-dihydroanthracen-2-yl) ethenesulfonamide] | BW-AQ-350 >BW-AQ-353 >BW-AQ-295 ~ BW-AQ-354 >>BW-AQ-349 | 3.45 ± 0.45 µM |  | cytotoxicity in EU-1 cells, in words (EU-1 cells; EU-1 cells): more potent than BW-AQ-353
CC(=O)CCCCOc1cccc2c1C(=O)c1c(OCCCCC(C)=O)cc(NC(=O)CCl)cc1C2=O [BW-AQ-345, 2-chloro-N-(9,10-dioxo-4,5-bis ((5-oxohexyl)oxy)-9,10-dihydroanthracen-2-yl)acetamide] |  |  |  | IC50 (EU-1 cells; EU-1, 24 h): 0.79 ± 0.03 µM
O=C(CCl)Nc1cc(OCCO)c2c(c1)C(=O)c1cccc(OCCO)c1C2=O [BW-AQ-238, reference compound] |  | 0.74 ± 0.12 µM |  | 
CC(=O)CCCOc1cc(NC(=O)CCl)cc2c1C(=O)c1c(O)cccc1C2=O [BW-AQ-336, 2-chloro-N-(5-hydroxy-9,10-dioxo-4-((4-oxopentyl)oxy)-9,10-dihydroanthracen-2-yl)acetamide] |  | 0.84 ± 0.02 µM | about 2 fold | 
C=CC(=O)Nc1cc(OCCCC(C)=O)c2c(c1)C(=O)c1cccc(OCCCC(C)=O)c1C2=O [BW-AQ-353, N-(9,10-dioxo-4,5-bis ((4-oxopentyl)oxy)-9,10-dihydroanthracen-2-yl) acrylamide] | BW-AQ-350 >BW-AQ-353 >BW-AQ-295 ~ BW-AQ-354 >>BW-AQ-349 | 6.21 ± 0.45 µM | about 15 fold | 
COc1cccc2c1C(=O)c1c(O)c3c(c(O)c1C2=O)C[C@@](O)(C(=O)CO)C[C@@H]3O[C@H]1C[C@H](N)[C@H](O)[C@H](C)O1 [Doxorubicin, reference compound] |  | 0.15 ± 0.02 µM |  | IC50 [2]: 53.1 ± 6.1 nM

Source: patent publication US20260257987A1, “COMPOUNDS AND METHOD FOR UPREGULATION OF P53 THROUGH INDUCTION OF MDM2 DEGRADATION” (Georgia State University Research Foundation, Inc., priority 2022, published 2026)
